Results from article PMC4160187 (2014).

How the values were obtained:
Assay in all cases: UV-vis Soret titration (A404)
[1] = tested on: r(C4G2)4 (RNA, other) GGCCCCGGCCCCGGCCCCGGCCCC; conditions: 20 mM K+; 40 mM HEPES pH 8.0, 1% DMF, 0.05% Triton X-100, 20°C; heme 0.5 µM; up to 20 µM RNA
[2] = tested on: d(G4C2)4 (DNA, G4) GGGGCCGGGGCCGGGGCCGGGGC; conditions: 20 mM K+; 40 mM HEPES pH 8.0, 1% DMF, 0.05% Triton X-100, 20°C; heme 0.5 µM; weaker than r(G4C2)4
[3] = tested on: CatG4 (DNA, G4) TGGGTAGGGCGGGTTGGGAAA; conditions: 20 mM K+; 40 mM HEPES pH 8.0, 1% DMF, 0.05% Triton X-100, 20°C; heme 0.5 µM
[4] = tested on: r(G4C2)4 (RNA, G4) GGGGCCGGGGCCGGGGCCGGGGC; conditions: 20 mM K+; 40 mM HEPES pH 8.0, 1% DMF, 0.05% Triton X-100, 20°C; heme 0.5 µM; text also ~3 µM

binding [1]: no
binding [2]: yes
Kd [3]: < 500 nM
KD [4]: 3100 nM
Compound: C=CC1=C(C)C2=Cc3c(C=C)c(C)c4[n]3[Fe]([Cl])[n]3c(c(C)c(CCC(=O)O)c3=CC3=NC(=C4)C(C)=C3CCC(=O)O)=CC1=N2
